Test results taken from PubChem BioAssay AID1963826 (Molecular Pharmacology Branch, DTP, NCI, 2024).

Test system: 926638-142-R-J1-PDC complex spheroid viability
Assay: Anticancer human tumor 926638-142-R-J1-PDC patient-derived endometrial carcinoma cell line growth inhibition [POLQ]
Settings: for IC50: curve of first compound; for viability, T/C: stronger effect = lower value
How it was run: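 Three-cell-type spheroids modelling solid tumor plus stroma served as the readout system; POL inhibitors were tested individually and in combination, concentration ranges set by clinical Cmax where known.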

[1] = second compound 0.0316 µM, first compound 0.00316 µM
[2] = second compound 0.0316 µM, first compound 0.01 µM
[3] = second compound 0.0316 µM, first compound 0.0316 µM
[4] = second compound 0.0316 µM, first compound 0.1 µM
[5] = second compound 0.0316 µM, first compound 0.316 µM
[6] = second compound 0.0316 µM, first compound 1 µM
[7] = second compound 0.1 µM, first compound 0.00316 µM
[8] = second compound 0.1 µM, first compound 0.01 µM
[9] = second compound 0.1 µM, first compound 0.0316 µM
[10] = second compound 0.1 µM, first compound 0.1 µM
[11] = second compound 0.1 µM, first compound 0.316 µM
[12] = second compound 0.1 µM, first compound 1 µM
[13] = second compound 0.316 µM, first compound 0.00316 µM
[14] = second compound 0.316 µM, first compound 0.01 µM
[15] = second compound 0.316 µM, first compound 0.0316 µM
[16] = second compound 0.316 µM, first compound 0.1 µM
[17] = second compound 0.316 µM, first compound 0.316 µM
[18] = second compound 0.316 µM, first compound 1 µM
[19] = second compound 1 µM, first compound 0.00316 µM
[20] = second compound 1 µM, first compound 0.01 µM
[21] = second compound 1 µM, first compound 0.0316 µM
[22] = second compound 1 µM, first compound 0.1 µM
[23] = second compound 1 µM, first compound 0.316 µM
[24] = second compound 1 µM, first compound 1 µM
[25] = second compound 3.16 µM, first compound 0.00316 µM
[26] = second compound 3.16 µM, first compound 0.01 µM
[27] = second compound 3.16 µM, first compound 0.0316 µM
[28] = second compound 3.16 µM, first compound 0.1 µM
[29] = second compound 3.16 µM, first compound 0.316 µM
[30] = second compound 3.16 µM, first compound 1 µM
[31] = second compound 10 µM, first compound 0.00316 µM
[32] = second compound 10 µM, first compound 0.01 µM
[33] = second compound 10 µM, first compound 0.0316 µM
[34] = second compound 10 µM, first compound 0.1 µM
[35] = second compound 10 µM, first compound 0.316 µM
[36] = second compound 10 µM, first compound 1 µM
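Note: spheroids exposed to drugs for one week before readout.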
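Throughout, for viability, T/C: percent viability relative to DMSO vehicle control wells set as 100%.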

C=CCn1c(=O)c2cnc(Nc3ccc(N4CCN(C)CC4)cc3)nc2n1-c1cccc(C(C)(C)O)n1 + Nc1ccc(C#CCN(C(=O)Cc2ncc(C(F)(F)F)cc2C(F)(F)F)c2ccc(F)cc2)nn1
IC50 (second compound 0.0316 µM): 0.584 µM
IC50 (second compound 0.1 µM): 0.626 µM
IC50 (second compound 0.316 µM): 0.67 µM
IC50 (second compound 1 µM): 0.457 µM
IC50 (second compound 3.16 µM): 0.618 µM
IC50 (second compound 10 µM): 0.263 µM
viability, T/C [1]: 100%
viability, T/C [2]: 97.9%
viability, T/C [3]: 80.7%
viability, T/C [4]: 63%
viability, T/C [5]: 57.5%
viability, T/C [6]: 44.9%
viability, T/C [7]: 122%
viability, T/C [8]: 90.6%
viability, T/C [9]: 92.3%
viability, T/C [10]: 81.3%
viability, T/C [11]: 56.1%
viability, T/C [12]: 43.3%
viability, T/C [13]: 109%
viability, T/C [14]: 95.7%
viability, T/C [15]: 95%
viability, T/C [16]: 80.5%
viability, T/C [17]: 64.6%
viability, T/C [18]: 42%
viability, T/C [19]: 116%
viability, T/C [20]: 94.4%
viability, T/C [21]: 80.5%
viability, T/C [22]: 72.7%
viability, T/C [23]: 57.1%
viability, T/C [24]: 37.6%
viability, T/C [25]: 103%
viability, T/C [26]: 88.9%
viability, T/C [27]: 80%
viability, T/C [28]: 84.4%
viability, T/C [29]: 60.2%
viability, T/C [30]: 40.6%
viability, T/C [31]: 76.5%
viability, T/C [32]: 95.2%
viability, T/C [33]: 88.9%
viability, T/C [34]: 67.3%
viability, T/C [35]: 49.1%
viability, T/C [36]: 42.6%

CC[C@@]1(O)C(=O)OCc2c1cc1n(c2=O)Cc2cc3c(CN(C)C)c(O)ccc3nc2-1 + Nc1ccc(C#CCN(C(=O)Cc2ncc(C(F)(F)F)cc2C(F)(F)F)c2ccc(F)cc2)nn1
IC50 (second compound 0.0316 µM): > 0.1 µM
IC50 (second compound 0.1 µM): > 0.1 µM
IC50 (second compound 0.316 µM): > 0.1 µM
IC50 (second compound 1 µM): 0.0976 µM
IC50 (second compound 3.16 µM): 0.0955 µM
IC50 (second compound 10 µM): 0.0731 µM
viability, T/C (second compound 0.0316 µM, first compound 0.000316 µM): 105%
viability, T/C (second compound 0.0316 µM, first compound 0.001 µM): 96.1%
viability, T/C [1]: 84%
viability, T/C [2]: 73.4%
viability, T/C [3]: 71.5%
viability, T/C [4]: 46.6%
viability, T/C (second compound 0.1 µM, first compound 0.000316 µM): 112%
viability, T/C (second compound 0.1 µM, first compound 0.001 µM): 90%
viability, T/C [7]: 81.6%
viability, T/C [8]: 81.7%
viability, T/C [9]: 69.2%
viability, T/C [10]: 48.3%
viability, T/C (second compound 0.316 µM, first compound 0.000316 µM): 96.8%
viability, T/C (second compound 0.316 µM, first compound 0.001 µM): 109%
viability, T/C [13]: 86.2%
viability, T/C [14]: 66.6%
viability, T/C [15]: 64.1%
viability, T/C [16]: 56.3%
viability, T/C (second compound 1 µM, first compound 0.000316 µM): 100%
viability, T/C (second compound 1 µM, first compound 0.001 µM): 101%
viability, T/C [19]: 89.6%
viability, T/C [20]: 88.5%
viability, T/C [21]: 71.2%
viability, T/C [22]: 49.4%
viability, T/C (second compound 3.16 µM, first compound 0.000316 µM): 92.4%
viability, T/C (second compound 3.16 µM, first compound 0.001 µM): 92%
viability, T/C [25]: 89.7%
viability, T/C [26]: 78.6%
viability, T/C [27]: 74.6%
viability, T/C [28]: 48.1%
viability, T/C (second compound 10 µM, first compound 0.000316 µM): 91.2%
viability, T/C (second compound 10 µM, first compound 0.001 µM): 88.5%
viability, T/C [31]: 80.2%
viability, T/C [32]: 79.6%
viability, T/C [33]: 65%
viability, T/C [34]: 43.9%

CCc1c2c(nc3ccc(O)cc13)-c1cc3c(c(=O)n1C2)COC(=O)[C@]3(O)CC + Nc1ccc(C#CCN(C(=O)Cc2ncc(C(F)(F)F)cc2C(F)(F)F)c2ccc(F)cc2)nn1
IC50 (second compound 0.0316 µM): 0.00814 µM
IC50 (second compound 0.1 µM): 0.0103 µM
IC50 (second compound 0.316 µM): 0.0137 µM
IC50 (second compound 1 µM): 0.0116 µM
IC50 (second compound 3.16 µM): 0.00709 µM
IC50 (second compound 10 µM): 0.00856 µM
viability, T/C [1]: 54.4%
viability, T/C [2]: 52.5%
viability, T/C [3]: 32.8%
viability, T/C [4]: 27.6%
viability, T/C [5]: 15.2%
viability, T/C [6]: 11.2%
viability, T/C [7]: 67.3%
viability, T/C [8]: 49.8%
viability, T/C [9]: 36.5%
viability, T/C [10]: 24.9%
viability, T/C [11]: 17.3%
viability, T/C [12]: 10.2%
viability, T/C [13]: 69.9%
viability, T/C [14]: 56.9%
viability, T/C [15]: 33.7%
viability, T/C [16]: 24.6%
viability, T/C [17]: 14.9%
viability, T/C [18]: 10.4%
viability, T/C [19]: 60%
viability, T/C [20]: 53.9%
viability, T/C [21]: 35.4%
viability, T/C [22]: 24.6%
viability, T/C [23]: 15.4%
viability, T/C [24]: 10.5%
viability, T/C [25]: 60.3%
viability, T/C [26]: 46.7%
viability, T/C [27]: 30.6%
viability, T/C [28]: 20.6%
viability, T/C [29]: 17.6%
viability, T/C [30]: 7.92%
viability, T/C [31]: 64.2%
viability, T/C [32]: 47.4%
viability, T/C [33]: 34.5%
viability, T/C [34]: 23.1%
viability, T/C [35]: 15.3%
viability, T/C [36]: 10.2%
